Results taken from PMC9921851, “Synthesis and Preclinical Evaluation of Three Novel ^68Ga-Labeled Bispecific PSMA/FAP-Targeting Tracers for Prostate Cancer Imaging” (Molecules, 2023).

Experiments:
[1] = test system: PSMA-expressing LNCaP tumor xenografts; assay: Ex vivo biodistribution in LNCaP tumor-bearing mice; settings: LNCaP tumor-bearing mice, 1 h post injection, mean ± SD, n = 4
Procedure: Biodistribution studies were conducted at 1 h post injection with ^68Ga-labeled AV01017, AV01030, AV01038, HTK03041, and FAPI-04 in LNCaP tumor-bearing mice (Figure 5 and Table S4, Supplementary Materials). The results were consistent with the observation from their PET images. Tumor uptake values for [^68Ga]Ga-AV01017, [^68Ga]Ga-AV01030, [^68Ga]Ga-AV01038, [^68Ga]Ga-HTK03041, and [^68Ga]Ga-FAPI-04 were 4.38 ± 0.55, 5.17 ± 0.51, 4.25 ± 0.86, 23.1 ± 6.11, and 3.15 ± 1.43 %ID/g, respectively. […] Although not statistically significant, the bispecific tracers with a longer linker tend to have a higher blood uptake value (9.24 ± 1.55 %ID/g for [^68Ga]Ga-AV01017; 7.07 ± 0.31%ID/g for [^68Ga]Ga-AV01038; 5.75 ± 0.59 %ID/g for [^68Ga]Ga-AV01030) and a lower tumor-to-blood ratio (0.48 ± 0.11 for [^68Ga]Ga-AV01017; 0.60 ± 0.13 for [^68Ga]Ga-AV01038; 0.89 ± 0.03 for [^68Ga]Ga-AV01030).
(§1) Imaging and biodistribution studies were performed using male NOD.Cg-Rag1tm1Mom Il2rgtm1Wjl/SzJ (NRG) mice following previously published procedures. The experiments were conducted according to the guidelines established by the Canadian Council on Animal Care and approved by Animal Ethics Committee of the University of British Columbia. The mice were briefly sedated by inhalation of 2.5% isoflurane in oxygen, and 100 µL LNCaP (2 × 10^5 cells) or HEK293T:hFAP (8.5 × 10^6 cells) cells were inoculated subcutaneously behind the left shoulder. When the tumor grew to 5–8 mm in diameter over 3–4 weeks and 4–5 weeks for HEK293T:hFAP and LNCaP tumors, respectively, the mice were used for PET/CT imaging and biodistribution studies.
(§2) For biodistribution studies, the mice were injected with the radiotracer (~2–4 MBq) as described above. At 1 h post injection, the mice were euthanized by CO2 inhalation. Blood was withdrawn by cardiac puncture, and organs/tissues of interest were collected, weighed, and counted using a Perkin Elmer (Waltham, MA, USA) Wizard2 2480 automatic gamma counter.

[2] = test system: FAP-expressing HEK293T:hFAP tumor xenografts; assay: Ex vivo biodistribution in HEK293T:hFAP tumor-bearing mice; settings: 1 h post injection, mean ± SD, n = 4
Procedure: Biodistribution studies were also conducted at 1 h post injection with [^68Ga]Ga-AV01017, [^68Ga]Ga-AV01030, [^68Ga]Ga-AV01038, [^68Ga]Ga-HTK03041, and [^68Ga]Ga-FAPI-04 in HEK293T:hFAP tumor-bearing mice (Figure 6 and Table S5, Supplementary Materials). Tumor uptake values for [^68Ga]Ga-AV01017, [^68Ga]Ga-AV01030, [^68Ga]Ga-AV01038, [^68Ga]Ga-HTK03041, and [^68Ga]Ga-FAPI-04 were 2.99 ± 0.37, 3.69 ± 0.81, 3.64 ± 0.83, 0.62 ± 0.19, and 12.5 ± 2.00 %ID/g, respectively. There was a very low tumor uptake in mice injected with [^68Ga]Ga-HTK03041, showing very minimal FAP expression in this tumor model. The uptake levels of these tracers on the major organs and tissues are consistent with the trends observed in the LNCaP tumor-baring mice (Figure 5 and Supplemental Table S4).
as §1, §2

Compound `N#C[C@@H]1CC(F)(F)CN1C(=O)CNC(=O)c1ccnc2ccc(OCCCc3cn(CC(=O)N[C@@H](CCCCNC(=O)CN4CCN(CC(=O)[O-])CCN(CC(=O)[O-])CCN(CC(=O)[O-])CC4)C(=O)NCC(=O)NC[C@H]4CC[C@H](C(=O)N[C@@H](Cc5c6ccccc6cc6ccccc56)C(=O)NCCCC[C@H](NC(=O)N[C@@H](CCC(=O)O)C(=O)O)C(=O)O)CC4)nn3)cc12.[68Ga+3]` [[^68Ga]Ga-AV01017] has an Adrenal glands uptake [1] of 6.24 ± 2.31 %ID/g, a Blood uptake [1] of 9.24 ± 1.55 %ID/g and a Bone uptake [1] of 4.05 ± 0.86 %ID/g. It also gave a Brain uptake [1] of 0.18 ± 0.01 %ID/g, a Fat uptake [1] of 1.01 ± 0.48 %ID/g and a Heart uptake [1] of 4.04 ± 0.28 %ID/g. For the same compound, the Kidneys uptake [1] was 30.9 ± 6.89 %ID/g, the LNCaP tumor uptake [1] was 4.38 ± 0.55 %ID/g and the Lacrimal glands uptake [1] was 0.13 ± 0.27 %ID/g. For the same compound, the “Large Intestine uptake” value [1] was 1.76 ± 0.21 %ID/g, the Liver uptake [1] was 2.24 ± 0.34 %ID/g and the Lungs uptake [1] was 3.76 ± 0.66 %ID/g. For the same compound, the Muscle uptake [1] was 1.91 ± 0.43 %ID/g, the Pancreas uptake [1] was 5.38 ± 1.29 %ID/g and the Salivary glands uptake [1] was 5.98 ± 4.00 %ID/g. The Seminal vesicle uptake [1] was 1.12 ± 0.21 %ID/g, the “Small Intestine uptake” value [1] was 2.47 ± 0.48 %ID/g and the Spleen uptake [1] was 3.73 ± 1.19 %ID/g. The Stomach uptake [1] was 0.64 ± 0.11 %ID/g, the Testes uptake [1] was 0.69 ± 0.06 %ID/g and the Thyroid uptake [1] was 12.7 ± 2.72 %ID/g. The Tumor/blood uptake ratio [1] was 0.48 ± 0.11, the Tumor/bone uptake ratio [1] was 1.10 ± 0.15 and the Tumor/kidney uptake ratio [1] was 0.14 ± 0.03. For the same compound, the Tumor/muscle uptake ratio [1] was 2.35 ± 0.35, the Adrenal glands uptake [2] was 4.06 ± 0.27 %ID/g and the Blood uptake [2] was 11.9 ± 3.37 %ID/g. It also gave a Bone uptake [2] of 5.26 ± 0.32 %ID/g, a Brain uptake [2] of 0.21 ± 0.07 %ID/g and a Fat uptake [2] of 0.61 ± 0.13 %ID/g. For the same compound, the “HEK293T:hFAP tumor uptake” value [2] was 2.99 ± 0.37 %ID/g, the Heart uptake [2] was 4.63 ± 0.42 %ID/g and the Kidneys uptake [2] was 19.3 ± 2.25 %ID/g. For the same compound, the Lacrimal gland uptake [2] was 1.34 ± 0.50 %ID/g, the “Large Intestine uptake” value [2] was 1.44 ± 0.20 %ID/g and the Liver uptake [2] was 3.40 ± 0.64 %ID/g. The Lungs uptake [2] was 5.50 ± 1.26 %ID/g, the Muscle uptake [2] was 1.63 ± 0.06 %ID/g and the Pancreas uptake [2] was 3.80 ± 0.25 %ID/g. The Salivary glands uptake [2] was 6.43 ± 1.03 %ID/g, the Seminal vesicle uptake [2] was 1.15 ± 0.33 %ID/g and the “Small Intestine uptake” value [2] was 2.14 ± 0.65 %ID/g. The Spleen uptake [2] was 3.63 ± 3.60 %ID/g, the Stomach uptake [2] was 0.63 ± 0.08 %ID/g and the Testes uptake [2] was 1.15 ± 0.86 %ID/g. For the same compound, the Thyroid uptake [2] was 10.7 ± 2.15 %ID/g, the Tumor/blood uptake ratio [2] was 0.18 ± 0.08 and the Tumor/bone uptake ratio [2] was 0.44 ± 0.12. It also gave a Tumor/kidney uptake ratio [2] of 0.11 ± 0.03 and a Tumor/muscle uptake ratio [2] of 1.25 ± 0.17.
In the case of `N#C[C@@H]1CC(F)(F)CN1C(=O)CNC(=O)c1ccnc2ccc(OCCCN3CCN(C(=O)CN4CCN(CC(=O)[O-])CCN(CC(=O)[O-])CCN(CC(=O)[O-])CC4)CC3)cc12.[68Ga+3]` [[^68Ga]Ga-FAPI-04, reference compound], the Adrenal glands uptake [1] is reported as 2.16 ± 1.08 %ID/g, the Blood uptake [1] is reported as 2.16 ± 0.33 %ID/g and the Bone uptake [1] is reported as 4.27 ± 0.74 %ID/g. For the same compound, the Brain uptake [1] was 0.06 ± 0.00 %ID/g, the Fat uptake [1] was 0.55 ± 0.47 %ID/g and the Heart uptake [1] was 0.70 ± 0.04 %ID/g. For the same compound, the Kidneys uptake [1] was 2.36 ± 0.38 %ID/g, the LNCaP tumor uptake [1] was 3.15 ± 1.43 %ID/g and the Lacrimal glands uptake [1] was 0.06 ± 0.07 %ID/g. The “Large Intestine uptake” value [1] was 0.73 ± 0.09 %ID/g, the Liver uptake [1] was 0.76 ± 0.08 %ID/g and the Lungs uptake [1] was 1.23 ± 0.07 %ID/g. For the same compound, the Muscle uptake [1] was 1.04 ± 0.20 %ID/g, the Pancreas uptake [1] was 0.99 ± 0.25 %ID/g and the Salivary glands uptake [1] was 1.36 ± 0.92 %ID/g. The Seminal vesicle uptake [1] was 3.72 ± 5.09 %ID/g, the “Small Intestine uptake” value [1] was 0.74 ± 0.12 %ID/g and the Spleen uptake [1] was 0.67 ± 0.11 %ID/g. It also gave a Stomach uptake [1] of 0.26 ± 0.04 %ID/g, a Testes uptake [1] of 0.42 ± 0.04 %ID/g and a Thyroid uptake [1] of 3.62 ± 1.01 %ID/g. For the same compound, the Tumor/blood uptake ratio [1] was 1.04 ± 0.42, the Tumor/bone uptake ratio [1] was 0.51 ± 0.28 and the Tumor/kidney uptake ratio [1] was 0.90 ± 0.28. It also gave a Tumor/muscle uptake ratio [1] of 2.30 ± 0.79, an Adrenal glands uptake [2] of 1.07 ± 0.32 %ID/g and a Blood uptake [2] of 1.07 ± 0.08 %ID/g. The Bone uptake [2] was 3.36 ± 1.09 %ID/g, the Brain uptake [2] was 0.04 ± 0.00 %ID/g and the Fat uptake [2] was 0.10 ± 0.01 %ID/g. For the same compound, the “HEK293T:hFAP tumor uptake” value [2] was 12.5 ± 2.00 %ID/g, the Heart uptake [2] was 0.34 ± 0.04 %ID/g and the Kidneys uptake [2] was 1.83 ± 0.16 %ID/g. It also gave a Liver uptake [2] of 0.36 ± 0.02 %ID/g, a Lungs uptake [2] of 0.74 ± 0.11 %ID/g and a Muscle uptake [2] of 0.67 ± 0.05 %ID/g. For the same compound, the Pancreas uptake [2] was 0.37 ± 0.05 %ID/g, the Seminal vesicle uptake [2] was 0.15 ± 0.04 %ID/g and the “Small Intestine uptake” value [2] was 0.36 ± 0.08 %ID/g. The Spleen uptake [2] was 0.56 ± 0.11 %ID/g, the Stomach uptake [2] was 0.07 ± 0.01 %ID/g and the Testes uptake [2] was 0.28 ± 0.04 %ID/g. The Tumor/blood uptake ratio [2] was 11.7 ± 2.04, the Tumor/bone uptake ratio [2] was 3.93 ± 1.16 and the Tumor/kidney uptake ratio [2] was 6.85 ± 1.33. For the same compound, the Tumor/muscle uptake ratio [2] was 18.8 ± 4.09.
